Data: US8716355B2, “Hydroxylated tolans and related compounds in the treatment of a cancer” (Kent State University, priority 2007, dated 2014)
Where two headings read alike, the source gives them in different places.

What was measured:
[1] = mice; 6.5 g/Kg daily for 6 weeks and 2 g/Kg for 2 years; cited from earlier work
advanced cancer = details: 10 g oral VC, randomized placebo-controlled trials; cited from earlier work
T24 = assay: MTT cytotoxicity, T24 bladder cancer cells; format: cell-based, human; details: Homo sapiens, VC:KST-201 200:1, read-out: CD50 (μM) of each Compound tested in combination, T24
Experimental: (§1) As a first step, the antitumor activity of the tolans was assessed against a panel of three cancer cells lines that produce solid tumors upon implantation into animals. DU145 is an androgen-independent prostate cancer cells. T24 is a transitional cell bladder carcinoma cell. MDAH2274 (“MDAH) is an endometroid ovarian adenocarcinoma cell. To assess the selectivity of this antitumor activity, the toxicity of the tolans to normal human fibroblasts (MHRF) was examined.
Cell killing was evaluated using the colorimetric MTT assay. The assay measures the formation of a colored product from a chromogenic precursor, the tetrazole 3-[4,5-dimethylthiazol-2-yl]-2,5 diphenyltetrazolium bromide (MTT). The yellow MTT is reduced to purple formazan in the mitochondria of living cells. A solubilization solution (typically dimethyl sulfoxide or sodium dodecyl sulfate in dilute hydrochloric acid) is added to dissolve the insoluble purple formazan product into a colored solution. The absorbance of this colored solution is quantified by measuring at a certain wavelength (usually between 500 and 600 nm) by a spectrophotometer. […] This MTT assay is used widely to assess the cytotoxicity and selectivity of compounds such as anti-cancer drugs. The assay is suitable for rapid toxicity characterization of a test agent such as a drug formulation. […] A lower CD50 indicates a greater cytotoxic activity (as a lower amount of the agent is needed to achieve a fixed level of cytotoxicity). Two agents can be compared by examining the fold-increase or decrease in their CD50 values. […]

MDAH2274 = assay: MTT cytotoxicity, MDAH2274 ovarian cancer cells; format: cell-based, human; details: Homo sapiens
Experimental: as §1
Cell killing was evaluated using the colorimetric MTT assay. The assay measures the formation of a colored product from a chromogenic precursor, the tetrazole 3-[4,5-dimethylthiazol-2-yl]-2,5 diphenyltetrazolium bromide (MTT). The yellow MTT is reduced to purple formazan in the mitochondria of living cells. A solubilization solution (typically dimethyl sulfoxide or sodium dodecyl sulfate in dilute hydrochloric acid) is added to dissolve the insoluble purple formazan product into a colored solution. The absorbance of this colored solution is quantified by measuring at a certain wavelength (usually between 500 and 600 nm) by a spectrophotometer. […] This MTT assay is used widely to assess the cytotoxicity and selectivity of compounds such as anti-cancer drugs. The assay is suitable for rapid toxicity characterization of a test agent such as a drug formulation. […] A lower CD50 indicates a greater cytotoxic activity (as a lower amount of the agent is needed to achieve a fixed level of cytotoxicity). Two agents can be compared by examining the fold-increase or decrease in their CD50 values.

terminal cancer = details: cited from earlier work
bladder cancer = assay: Bladder cancer patients (Example VIII B); format: in vivo, human; details: intravenous 10 μg to 5 mg/kg over three months
Experimental: A group of 20 men and 20 women aged 50-75 with bladder cancer are treated by intravenous injection of between 10 μg and 5 mg/kg of KST-201, KST-213, KST-301 or KST-401. Each compound is given to a group of 5 men and 5 women) over a period of three months. Clinical, radiographic and histopathological tests show significant remission in 35% of patients, accompanied by signs of cell death in 45%. There are no significant differences between the results with the four compounds.

Vero cells = assay: Cytotoxicity (CD50) on Vero cells; format: cell-based; details: 48 hours of exposure
From the text: See Example II for tumor cell cytotoxicity of these compounds. […] NAB group 32 contains two compounds, Tolan-2 (also designated herein as KST-201) and Stil-2. Based on the NAB, they were classified as topological isomers. However, chemically they differ because Stil-2, a […], contained a double bonded linker, while Tolan-2 contained a triple bonded linker. The cytotoxicity of the two molecules on Vero cells differed markedly: Tolan-2 was less toxic than Stil-2.

HSV-1 [2] = assay: HSV-1 replication in infected Vero cells (plaque assay); format: cell-based, Herpes Simplex Virus-Type 1
Experimental: For this purpose HSV-1 replication at 24, 48 and 72 h was examined in the presence or absence of varying concentrations of the polyphenol.
The SI is the ratio of the CD50 divided by a selected inhibitory concentration (IC %).
Viral inhibition by Tolan-3 appeared to occur after viral entry into cells. […] Subsequently, the compound was removed and replaced with culture medium alone, and the incubated continued for 48 or 72 more hrs. In a second experiment, HSV-1 infected Vero cells were incubated with 350 μM Tolan-3 for 48 h. Thereafter, the Tolan-3 was removed and replaced by medium and the incubation continued for an additional 24 h. Viral titers were calculated by a standard plaque assay.

HSV-1 [3] = assay: Direct inactivation, attachment and penetration of HSV-1; format: cell-based, Herpes Simplex Virus-Type 1
Experimental: To determine whether Tolan-3 directly inactivated the virus, Tolan-3 was incubated with HSV-1 at room temperature for 1, 30 or 60 minutes while controls were also incubated with HSV-1 at room temperature without Tolan-3. The treated or control virus was plated onto Vero cells.

Mushroom tyrosinase = assay: Inhibition of mushroom tyrosinase activity; format: biochemical; details: concentration not given
Experimental: All chemical used for reagents were purchased from Sigma Chemical Company. KST201 at each tested concentration (1000, 250 and 100 μM) was dissolved in 10% ethanol from a master mixture of the drug prepared at 0.1M in 100% ethanol.
Mushroom tyrosinase (Sigma) was diluted in 50 mM phosphate buffer, pH 6.5 to yield a concentration of 16 U/μl. […] A master mix containing 0.5 mM L-DOPA [3,4-dihydroxy-1-phenylalanine], 10 mM Sodium L-tyrosine in 50 mM phosphate buffer, pH 6.5 was prepared. The KST-201 dilutions were preincubated with the enzyme for 20 minutes. The samples were pipetted into 24 well plates and the master mixture added quickly. The reaction was read using a kinetic format in which wells were read every 30 seconds over a course of 10 minutes at a wavelength of 475 nm using a Synergy HT Plate reader. A kinetic curve was generated for each sample compared to a total reaction with mushroom tyrosinase without a drug (total).

ovarian cancer = assay: Ovarian cancer patients (Example VIII D); format: in vivo, human; details: daily gelatin capsule 200 mg
Experimental: A study is carried out in a group of 40 women with ovarian cancer of various grades to determine the effect of treatment with compounds of KST-201, KST-213, KST-301 and KST-401. The administration protocol involves daily administration of a gelatin capsule containing 200 mg of active compound.

prostate cancer = assay: Prostate cancer patients (Example VIII A); format: in vivo, human; details: daily 10 μg to 5 mg/Kg; no significant differences between the four groups
Experimental: A group of 40 men aged 55-75 suffering from prostate cancer receive a daily dosage of between 10 μg and 5 mg/Kg body weight of KST-201, KST-213, KST-301 or KST-401 (10 patients per compound). Examination of the patients by clinical, radiographic and histopathological tests show significant shrinkage in tumors, and signs of cell death in 38% of the patients; there are no significant differences between the four treatment groups.

HSV-1 [4] = test system: HSV-1
From the text: FIG. 2. […] A 10% w/v solution of KST-301 in DMSO was applied topically to the epidermal infection site 3×/day for 5 days. Controls animals received the same volume of the DMSO vehicle at the same intervals. Lesions were scored as 0=no visible lesions, +1=papules around the infection site, +2=papules are ulcerated around the infection site with eschar formation, +3=ulcerated zosteriform spread along peripheral nerves to the flank of the animal, +4=ulcerated lesions open on the flank, and +5=death of the animal.
The lesions were scored as in the description for FIG. 2.

breast cancer = assay: Breast cancer prevention, skin patch (Example VIII C); format: in vivo, human; details: transdermal patch 10 mg to 100 mg daily, one-year study
Experimental: This study investigates whether KST-201, KST-213, KST-301 and KST-401 administered transdermally each day through a skin patch aid in preventing breast cancer or metastatic cancer following cancer therapy. Patches are prepared with a lipophilic carrier which is readily absorbed through the skin (glycerol cold cream containing glycerin and peanut oil). The HT compound is mixed with the lipophilic cream such that each patch comprises 10 mg to 100 mg of active compound. The patch is applied to the skin each day, and rapid absorption occurs. After two hours, the patch is removed.

colon cancer = assay: Colon cancer patients (Example VIII E); format: in vivo, human
Experimental: Eight patients suffering from advanced colon cancer are treated daily for three weeks with an intravenous infusion of 2 g of the compounds KST-201, KST-213, KST-301 or KST-401 dissolved in saline. Two patients are assigned to each compound. The compounds are dissolved in sterile saline. […] Progression of the tumor is also arrested over the treatment period.
Another eight patients with terminal colon cancer are treated by daily bolus injections (intravenous or intramuscular) of 2 g of KST-201, KST-213, KST-301 or KST-401.

[5] = intravenous infusion 2 g daily for three weeks

For O=C1O[C@H]([C@@H](O)CO)C([O-])=C1O.[Na+] [VC, sodium ascorbate, reference compound], the “Mortality, weight changes, blood chemistry, hematology, histology, other pathologies” value [1] is listed as “no abnormal rates of mortality”, the “Benefit of oral VC treatment” value (advanced cancer) is listed as “no benefits of oral VC treatment” and the IC50 (T24; T-24, 24 h, 1 day) is listed as 638 µM. The IC50 (T24; T-24, 48 h, 2 days) was 634 µM, the IC50 (MDAH2274; 24 h, MTT, 1 day incubation, read-out: CD50 against MDAH, compound tested individually) was 937 µM and the IC50 (MDAH2274; 24 h, VC:KST-201 400:1, 1 day, read-out: CD50 (μM) of each Compound tested in combination, MDAH 2274) was 466 µM. It also gave an IC50 (MDAH2274; 48 h, MTT, 2 days incubation, read-out: CD50 against MDAH, compound tested individually) of 900 ± 46.7 µM, an IC50 (MDAH2274; 48 h, VC:KST-201 400:1, 2 days, read-out: CD50 (μM) of each Compound tested in combination, MDAH 2274) of 389 ± 9.6 µM and an IC50 (MDAH2274; 72 h, MTT, 3 days incubation, read-out: CD50 against MDAH, compound tested individually) of 879 µM. For the same compound, the IC50 (MDAH2274; 72 h, VC:KST-201 400:1, 3 days, read-out: CD50 (μM) of each Compound tested in combination, MDAH 2274) was 393 µM, the “Mean survival time (MST)” value (terminal cancer; 100 terminal cancer patients, 10 g/day i.v. 10 days then oral, controls 50 days) was > 210 days and the “MST, times greater than that of the controls” value (terminal cancer; 100 terminal cancer patients) was “more than 4.2 times”. For the same compound, the “MST of subjects with ovarian cancer” value (terminal cancer; six ovarian cancer subjects, controls 71 days) was 148 days.

With Oc1ccc(C#Cc2cc(O)cc(O)c2)cc1 [KST-301, 3,4′,5-trihydroxytolan] the “Patients with signs of cell death” value (bladder cancer) was 45%, the “Patients with significant remission” value (bladder cancer; no differences between compounds) was 35% and the CD50 (Vero cells) was 350 µM. The “Log CD50” value (Vero cells) was 2.54, the “Reversibility of HSV-1 inhibition after removal of compound” value (HSV-1 [2]; 350 μM, removed as late as 48 hours post infection) was “HSV-1 replication recovered” and the “SI50 (selectivity index, CD50 divided by IC50)” value (HSV-1 [2]; 48 h post-infection) was > 63. The IC50 (HSV-1 [2]; Human alphaherpesvirus 1, Vero, read-out: IC50, concentration at which 50% of HSV-1 replication was inhibited, viral assays at lower compound concentrations) was 6.37 µM, the “Effect on HSV-1 viral replication in Vero cells (in words)” value (HSV-1 [2]; at CD50, 75% and 50% of CD50, 24, 48, 72 h) was “significant anti-HSV activity” and the “Inhibition of HSV-1 attachment or penetration” value (HSV-1 [3]) was “did not inhibit HSV-1 attachment or penetration”. The “Direct inactivation of HSV-1” value (HSV-1 [3]; incubated with HSV-1 at room temperature 1, 30 or 60 minutes) was “did not directly inactivate HSV-1”, the “% inhibition of mushroom tyrosinase activity” value (Mushroom tyrosinase) was 40.1±9.9% and the “Rate of production of ovarian cancer markers (Muc-1, Sp17)” value (ovarian cancer) was “significant decrease”. For the same compound, the “Tumor growth during study period” value (ovarian cancer) was “Tumors regress or show no further growth”, the “Patients with significant shrinkage in tumors, and signs of cell death” value (prostate cancer) was 38% and the “Number and severity of HSV lesions” value (HSV-1 [4]; 5% w/v solution, topical, hairless mice) was “significantly reduced the number and severity of HSV lesions”. The “Severity of HSV-1 lesions” value (HSV-1 [4]; 10% w/v solution in DMSO, topical 3×/day for 5 days, hairless mice) was “significantly reduced”, the “Treated animals in which lesion formation was prevented” value (HSV-1 [4]; topical solution in DMSO) was 67% and the “Treated animals showing evidence of HSV infection” value (HSV-1 [4]; topical solution in DMSO, controls 83-100%) was 33%. For the same compound, the “Maximum (average) lesion score” value (HSV-1 [4]; topical solution in DMSO, scale 0 to +5, controls 3.8-4 by days 8 and 9) was 0.8-1.2, the “Dermal toxicity (erythema, scaling, crusting, lichenification, excoriation)” value (HSV-1 [4]; topical, hairless mice) was “no apparent dermal toxicity” and the “Breast cancer or metastatic cancer in high-risk group” value (breast cancer) was “does not show any evidence of breast cancer or other metastatic cancer”. For the same compound, the “Dissemination of the tumors” value (colon cancer; daily bolus injections (intravenous or intramuscular) of 2 g) was “dissemination of the tumors is diminished”, the “Cancer marker carcinoembryonic antigen (CEA)” value (colon cancer; [5]) was “significant reduction” and the “Progression of the tumor” value (colon cancer; [5]) was “arrested”.
